Assay results: US9375497B2, “[F-18]-labeled L-glutamic acid, [F-18]-labeled L-glutamine, derivatives thereof and use thereof and processes for their preparation” (BAYER SCHERING PHARMA AKTIENGESELLSCHAFT, priority 2006, dated 2016)

Legend:
[1] = tested on: murine B16F1 melanoma model in C57BI6 mice; assay: Tumor enrichment and tissue distribution, B16F1 melanoma model; conditions: for Tumor/tissue quotient, Blood / Tumor/tissue quotient, Brain / Tumor/tissue quotient, Fat / Tumor/tissue quotient, Heart / Tumor/tissue quotient, Intestine / Tumor/tissue quotient, Kidney / Tumor/tissue quotient, Liver / Tumor/tissue quotient, Lung / Tumor/tissue quotient, Muscle / Tumor/tissue quotient, Ovary / Tumor/tissue quotient, Skin / Tumor/tissue quotient, Spleen / Tumor/tissue quotient, Stomach / Tumor/tissue quotient, Uterus: single i.v.; for Tissue uptake, Blood / Tissue uptake, Brain / Tissue uptake, Fat / Tissue uptake, Heart / Tissue uptake, Intestine / Tissue uptake, Kidney / Tissue uptake, Liver / Tissue uptake, Lung / Tissue uptake, Muscle / Tissue uptake, Ovary / Tissue uptake, Skin / Tissue uptake, Spleen / Tissue uptake, Stomach / Tissue uptake, Tumor / Tissue uptake, Uterus: single i.v. 370 kBq; for tumor/blood quotient / tumor/blood quotient, factor higher than for [^14C]5-glutamic acid / tumor/liver quotient / tumor/liver quotient, factor higher than for [^14C]5-glutamic acid: B16F1 melanoma model
Description: For the evaluation of the tumor enrichment and the tissue distribution in experimental animals, [^18F]-4-glutamic acid was tested in a murine F9 teratocarcinoma model in NMRI nude mice and a murine B16F1 melanoma model in C57BI6 mice.
For this, 1×10^6 cells (F9) or 5×10^5 cells (B16F1) respectively were suspended in 100 μl of phosphate-buffered physiological saline solution and inoculated subcutaneously into the right, rear flank of the corresponding experimental animal species (NMRI for F9 and 057-BI6 for B16F1) (Berndorff et al. Clin. Cancer Res. 2005, 11, 2005). […] [^18F]-4-Glutamic acid (370 kBq, in 100 μl of physiological saline solution) was administered intravenously to the tail vein. After 15; 60 and 120 min in each case, the animals were killed, organ and tumor removed, weighed and measured for radioactive content.

[2] = tested on: A549 (non-small-cell bronchial carcinoma) cells; assay: Tumor cell uptake in A549 cells; assay type: cell-based, human; conditions: 250 kBq/well, compared to [^18F]FDG
Description: For the evaluation of the tumor cell uptake of [^18F]glutamic acid, cell uptake experiments were carried out in human A549 (non-small-cell bronchial carcinoma) and HT29 (colonic carcinoma) cells. The tumor cell uptake of the glutamic acid derivatives was compared to
[^18F]FDG (gold standard for oncological PET investigations).
FIG. 2: Comparison of the time-dependent tumor cell uptake of [^18F]-4-glutamic acid [20-35 μM] (on the left) and [F-18]FDG [2 μM] (on the right) in A549 cells. The cells were incubated with 250 kBq/well. For displacement experiments, L-glutamic acid (1 mM) or glucose (5 mM) was used (mean value±standard deviation, n=3).

Structure (SMILES): NC(CC([18F])C(=O)O)C(=O)O (centres unmarked) [[^18F]4-glutamic acid, 4-[F-18]fluoroglutamic acid]
- Tumor/tissue quotient, Blood ([1]; 0.25 h (times as Table 3)): 1.21
- Tumor/tissue quotient, Brain ([1]; 0.25 h (times as Table 3)): 4.89
- Tumor/tissue quotient, Fat ([1]; 0.25 h (times as Table 3)): 3.95
- Tumor/tissue quotient, Heart ([1]; 0.25 h (times as Table 3)): 1.06
- Tumor/tissue quotient, Intestine ([1]; 0.25 h (times as Table 3)): 1.19
- Tumor/tissue quotient, Kidney ([1]; 0.25 h (times as Table 3)): 0.31
- Tumor/tissue quotient, Liver ([1]; 0.25 h (times as Table 3)): 0.93
- Tumor/tissue quotient, Lung ([1]; 0.25 h (times as Table 3)): 0.32
- Tumor/tissue quotient, Muscle ([1]; 0.25 h (times as Table 3)): 1.72
- Tumor/tissue quotient, Ovary ([1]; 0.25 h (times as Table 3)): 1.03
- Tumor/tissue quotient, Skin ([1]; 0.25 h (times as Table 3)): 1.49
- Tumor/tissue quotient, Spleen ([1]; 0.25 h (times as Table 3)): 0.89
- Tumor/tissue quotient, Stomach ([1]; 0.25 h (times as Table 3)): 1.05
- Tumor/tissue quotient, Uterus ([1]; 0.25 h (times as Table 3)): 0.56
- Tissue uptake, Blood ([1]; 0.25 h): 2.93 % dose/g
- Tissue uptake, Brain ([1]; 0.25 h): 0.73 % dose/g
- Tissue uptake, Fat ([1]; 0.25 h): 0.92 % dose/g
- Tissue uptake, Heart ([1]; 0.25 h): 3.36 % dose/g
- Tissue uptake, Intestine ([1]; 0.25 h): 3.00 % dose/g
- Tissue uptake, Kidney ([1]; 0.25 h): 11.35 % dose/g
- Tissue uptake, Liver ([1]; 0.25 h): 3.81 % dose/g
- Tissue uptake, Lung ([1]; 0.25 h): 11.10 % dose/g
- Tissue uptake, Muscle ([1]; 0.25 h): 2.19 % dose/g
- Tissue uptake, Ovary ([1]; 0.25 h): 3.57 % dose/g
- Tissue uptake, Skin ([1]; 0.25 h): 2.43 % dose/g
- Tissue uptake, Spleen ([1]; 0.25 h): 4.07 % dose/g
- Tissue uptake, Stomach ([1]; 0.25 h): 3.41 % dose/g
- Tissue uptake, Tumor ([1]; 0.25 h): 3.55 % dose/g
- Tissue uptake, Uterus ([1]; 0.25 h): 7.17 % dose/g
- Tumor/tissue quotient, Blood ([1]; 1.0 h (times as Table 3)): 5.25
- Tumor/tissue quotient, Brain ([1]; 1.0 h (times as Table 3)): 4.7
- Tumor/tissue quotient, Fat ([1]; 1.0 h (times as Table 3)): 14.16
- Tumor/tissue quotient, Heart ([1]; 1.0 h (times as Table 3)): 3.54
- Tumor/tissue quotient, Intestine ([1]; 1.0 h (times as Table 3)): 1.56
- Tumor/tissue quotient, Kidney ([1]; 1.0 h (times as Table 3)): 1.25
- Tumor/tissue quotient, Liver ([1]; 1.0 h (times as Table 3)): 3.63
- Tumor/tissue quotient, Lung ([1]; 1.0 h (times as Table 3)): 1.51
- Tumor/tissue quotient, Muscle ([1]; 1.0 h (times as Table 3)): 4.3
- Tumor/tissue quotient, Ovary ([1]; 1.0 h (times as Table 3)): 4.38
- Tumor/tissue quotient, Skin ([1]; 1.0 h (times as Table 3)): 5.43
- Tumor/tissue quotient, Spleen ([1]; 1.0 h (times as Table 3)): 2.81
- Tumor/tissue quotient, Stomach ([1]; 1.0 h (times as Table 3)): 4.02
- Tumor/tissue quotient, Uterus ([1]; 1.0 h (times as Table 3)): 3.84
- Tissue uptake, Blood ([1]; 1.0 h): 0.48 % dose/g
- Tissue uptake, Brain ([1]; 1.0 h): 0.49 % dose/g
- Tissue uptake, Fat ([1]; 1.0 h): 0.18 % dose/g
- Tissue uptake, Heart ([1]; 1.0 h): 0.71 % dose/g
- Tissue uptake, Intestine ([1]; 1.0 h): 1.28 % dose/g
- Tissue uptake, Kidney ([1]; 1.0 h): 2.25 % dose/g
- Tissue uptake, Liver ([1]; 1.0 h): 0.64 % dose/g
- Tissue uptake, Lung ([1]; 1.0 h): 1.47 % dose/g
- Tissue uptake, Muscle ([1]; 1.0 h): 0.53 % dose/g
- Tissue uptake, Ovary ([1]; 1.0 h): 0.58 % dose/g
- Tissue uptake, Skin ([1]; 1.0 h): 0.48 % dose/g
- Tissue uptake, Spleen ([1]; 1.0 h): 0.81 % dose/g
- Tissue uptake, Stomach ([1]; 1.0 h): 0.59 % dose/g
- Tissue uptake, Tumor ([1]; 1.0 h): 2.14 % dose/g
- Tissue uptake, Uterus ([1]; 1.0 h): 0.69 % dose/g
- Tumor/tissue quotient, Blood ([1]; 2.0 h (times as Table 3)): 7.93
- Tumor/tissue quotient, Brain ([1]; 2.0 h (times as Table 3)): 3.55
- Tumor/tissue quotient, Fat ([1]; 2.0 h (times as Table 3)): 8.85
- Tumor/tissue quotient, Heart ([1]; 2.0 h (times as Table 3)): 5.06
- Tumor/tissue quotient, Intestine ([1]; 2.0 h (times as Table 3)): 0.87
- Tumor/tissue quotient, Kidney ([1]; 2.0 h (times as Table 3)): 2.22
- Tumor/tissue quotient, Liver ([1]; 2.0 h (times as Table 3)): 4.42
- Tumor/tissue quotient, Lung ([1]; 2.0 h (times as Table 3)): 2.34
- Tumor/tissue quotient, Muscle ([1]; 2.0 h (times as Table 3)): 6.95
- Tumor/tissue quotient, Ovary ([1]; 2.0 h (times as Table 3)): 3.02
- Tumor/tissue quotient, Skin ([1]; 2.0 h (times as Table 3)): 5.94
- Tumor/tissue quotient, Spleen ([1]; 2.0 h (times as Table 3)): 4.03
- Tumor/tissue quotient, Stomach ([1]; 2.0 h (times as Table 3)): 4.24
- Tumor/tissue quotient, Uterus ([1]; 2.0 h (times as Table 3)): 2.59
- Tissue uptake, Blood ([1]; 2.0 h): 0.16 % dose/g
- Tissue uptake, Brain ([1]; 2.0 h): 0.36 % dose/g
- Tissue uptake, Fat ([1]; 2.0 h): 0.16 % dose/g
- Tissue uptake, Heart ([1]; 2.0 h): 0.28 % dose/g
- Tissue uptake, Intestine ([1]; 2.0 h): 1.46 % dose/g
- Tissue uptake, Kidney ([1]; 2.0 h): 0.57 % dose/g
- Tissue uptake, Liver ([1]; 2.0 h): 0.29 % dose/g
- Tissue uptake, Lung ([1]; 2.0 h): 0.56 % dose/g
- Tissue uptake, Muscle ([1]; 2.0 h): 0.24 % dose/g
- Tissue uptake, Ovary ([1]; 2.0 h): 0.45 % dose/g
- Tissue uptake, Skin ([1]; 2.0 h): 0.22 % dose/g
- Tissue uptake, Spleen ([1]; 2.0 h): 0.31 % dose/g
- Tissue uptake, Stomach ([1]; 2.0 h): 0.30 % dose/g
- Tissue uptake, Tumor ([1]; 2.0 h): 1.27 % dose/g
- Tissue uptake, Uterus ([1]; 2.0 h): 0.76 % dose/g
- tumor/blood quotient ([1]; 1 h p.i.): 5.3
- tumor/blood quotient, factor higher than for [^14C]5-glutamic acid ([1]; 1 h p.i.): 2
- tumor/liver quotient ([1]; 1 h p.i.): 3.6
- tumor/liver quotient, factor higher than for [^14C]5-glutamic acid ([1]; 1 h p.i.): 4.6
- tumor/blood quotient ([1]; 2 h p.i.): 7.9
- tumor/blood quotient, factor higher than for [^14C]5-glutamic acid ([1]; 2 h p.i.): 3.5
- tumor/liver quotient ([1]; 2 h p.i.): 4.4
- tumor/liver quotient, factor higher than for [^14C]5-glutamic acid ([1]; 2 h p.i.): 5.5
- tumor enrichment ([1]; B16F1 melanoma, 1 h after intravenous administration): 2.14 % ID/g
- maximal tumor enrichment ([1]; B16 melanoma, after intravenous injection (15 min)): 3.55 % ID/g
- tumor cell uptake [2]: surprisingly high uptake
